Results: PMC8286840, “Identifying SARS-CoV-2 antiviral compounds by screening for small molecule inhibitors of Nsp3 papain-like protease” (Biochemical Journal, 2021)
“Also recorded” adds a separate entry of the source. Where a name gives a salt, the structure may show the parent alone. Read-outs that look alike come from different tables or passages of the source. Where no end group is shown, it is not given here.

How the values were obtained:
[1] = molecular target: T1, SARS-CoV-2 PLpro (nsp3 1564–1878) (Severe acute respiratory syndrome coronavirus 2, UniProt P0DTD1); test: biochemical; format: biochemical; conditions: for Normalized activity High (3.75 µM) / Normalized activity Low (1.25µM): normalized to control without compound; for IC50: fluorescent-based assay; for Inhibition (%) 1.25 µM / Inhibition (%) 3.75 µM: 1.75 µM enzyme, 20 µM substrate
[2] = molecular target: T2, SARS-CoV-2 PLpro (Severe acute respiratory syndrome coronavirus 2, UniProt P0DTD1); format: biochemical; conditions: 3.75 µM and 10 µM compound, 0.5 µM enzyme, 5 h RT
[3] = molecular target: T1, SARS-CoV-2 PLpro (nsp3 1564–1878); test: biochemical; set-up: FRET-quenched peptide (Pro3) cleavage by PLpro, 10 min pre-incubation, slope over 20 min, normalised to no-compound control; conditions: high concentration screen, read-out: % of control remaining
[4] = molecular target: T1, SARS-CoV-2 PLpro (nsp3 1564–1878); test: biochemical; set-up: FRET-quenched peptide (Pro3) cleavage by PLpro, 10 min pre-incubation, slope over 20 min, normalised to no-compound control; conditions: low concentration screen, read-out: % of control remaining
[5] = molecular target: T2, SARS-CoV-2 PLpro; format: biochemical; conditions: 10 µM inhibitor, 50 nM PLpro, 1 µM substrate, 1 h 25°C
[6] = molecular target: T2, SARS-CoV-2 PLpro; format: biochemical; conditions: 10 µM inhibitor, 50 nM PLpro, 1 µM substrate, 1 h 25°C; remark: listed apart in the source
[7] = screen, 1.25 µM compound, number after the slash is the control without compound
[8] = screen, 3.75 µM compound, number after the slash is the control without compound

Compound: CC[C@@H]1Cc2cc(O)ccc2C2=C1c1ccc(O)cc1C[C@H]2CC (relative stereo) [(R,R)-cis-Diethyl tetrahydro-2,8-chrysenediol]
- Z score ([1]; screen, Table S1): -14.155
- Normalized activity High (3.75 µM) ([1]; screen, Table S1): 0
- Normalized activity Low (1.25µM) ([1]; screen, Table S1): 0.8033

Compound: CCCn1c(=O)c2[nH]c(-c3ccc(S(=O)(=O)O)cc3)nc2n(CCC)c1=O [1,3-Dipropyl-8-p-sulfophenylxanthine]
- Z score ([1]; screen, Table S1): -14.155
- Normalized activity High (3.75 µM) ([1]; screen, Table S1): 0
- Normalized activity Low (1.25µM) ([1]; screen, Table S1): 0.885

Compound: Cn1c(=O)c2[nH]c(-c3ccc(S(=O)(=O)O)cc3)nc2n(C)c1=O [8-(p-Sulfophenyl)theophylline]
- Z score ([1]; screen, Table S1): -14.155
- Normalized activity High (3.75 µM) ([1]; screen, Table S1): 0
- Normalized activity Low (1.25µM) ([1]; screen, Table S1): 0.9534

Compound: O=C1c2ccccc2-c2nc3nnnn3nc21 [PDK1/Akt/Flt Dual Pathway Inhibitor]
- Inhibition of PLpro cleavage of the substrate (gel-based) [2]: show inhibition; also recorded: strongly inhibited
- remaining activity at 3.75 µM ([3]; Well no.=2319): -2.62%
- remaining activity at 1.25 µM ([4]; Well no.=2319): 11.1%
- IC50 [1]: 265 nM
- IC50 ([1]; listed as PDK/Akt/Flt dual pathway inhibitor): 260 nM
- Z score ([1]; screen hits, Table 1): −14.53
- Inhibition (%) 1.25 µM ([1]; screen, 1.25 µM compound): 89%
- slope value (of slope value/control) 1.25 µM [1, 7]: 50
- Inhibition (%) 3.75 µM ([1]; screen, 3.75 µM compound): 100%
- slope value (of slope value/control) 3.75 µM [1, 8]: 0
- Z score ([1]; screen, Table S1): -14.531
- Normalized activity High (3.75 µM) ([1]; screen, Table S1): -0.02621
- Normalized activity Low (1.25µM) ([1]; screen, Table S1): 0.111

Compound: O=C(O)c1cccc(O)c1O [Pyrocatechuic acid]
- Inhibition of PLpro cleavage of the substrate (gel-based) [2]: did not inhibit
- remaining activity at 3.75 µM ([3]; Well no.=6595): 51%
- remaining activity at 1.25 µM ([4]; Well no.=6595): 103%
- Z score ([1]; screen hits, Table 1): −6.846
- Inhibition (%) 1.25 µM ([1]; screen, 1.25 µM compound): 0%
- slope value (of slope value/control) 1.25 µM [1, 7]: 453
- Inhibition (%) 3.75 µM ([1]; screen, 3.75 µM compound): 49%
- slope value (of slope value/control) 3.75 µM [1, 8]: 226

Compound: C[C@H](CCC(=O)O)[C@H]1CC[C@H]2[C@@H]3[C@@H](O)C[C@@H]4C[C@H](O)CC[C@]4(C)[C@H]3CC[C@]12C [Ursodiol]
- Inhibition of PLpro cleavage of the substrate (gel-based) [2]: did not inhibit
- remaining activity at 3.75 µM ([3]; Well no.=8332): 90.6%
- remaining activity at 1.25 µM ([4]; Well no.=8332): 89.1%
- slope value (of slope value/control) 1.25 µM [1]: 26 (324/440)
- slope value (of slope value/control) 3.75 µM [1]: 55 (187/420)
- inhibition at 1.25 µM ([1]; read-out: Inhibition (%) 1.25 µM): 26%
- inhibition at 3.75 µM ([1]; read-out: Inhibition (%) 3.75 µM): 55%
- Z score ([1]; screen hits, Table 1): −7.78

Compound: COc1ccccc1N1CCN(CCN(C(=O)c2ccc(I)cc2)c2ccccn2)CC1 [p-MPPI hydrochloride]
- remaining activity at 3.75 µM ([3]; Well no.=1137): 102%
- remaining activity at 1.25 µM ([4]; Well no.=1137): 97.8%

Compound: CNCC(O)c1ccc(O)cc1 (stereo not drawn) [p-Synephrine]
- remaining activity at 3.75 µM ([3]; Well no.=7313): 102%
- remaining activity at 1.25 µM ([4]; Well no.=7313): 98.5%

Compound: COc1cc(C(=O)c2ccc3ncccc3c2)cc(OC)c1OC [quinolin-6-yl(3,4,5-trimethoxyphenyl)methanone]
- remaining activity at 3.75 µM ([3]; Well no.=6127): 97.9%
- remaining activity at 1.25 µM ([4]; Well no.=6127): 99.8%

Compound: O[C@H]1[C@H](O)[C@@H](O)[C@H](O)[C@@H](O)[C@@H]1O [scyllo -Inositol]
- remaining activity at 3.75 µM ([3]; Well no.=5379): 102%
- remaining activity at 1.25 µM ([4]; Well no.=5379): 104%

Compound: CC(C)=CC[C@@H](O)C1=CC(=O)c2c(O)ccc(O)c2C1=O [shikonin]
- Inhibition of K48-linked Ub3 cleavage (DUB activity) [5]: did not inhibit and not
- Inhibition of pro-ISG15 cleavage (deISGylating activity) [6]: did not inhibit
- remaining activity at 3.75 µM ([3]; Well no.=3172): 82.5%
- remaining activity at 3.75 µM ([3]; Well no.=6398): 92.6%
- remaining activity at 1.25 µM ([4]; Well no.=3172): 86.4%
- remaining activity at 1.25 µM ([4]; Well no.=6398): 96.8%

Compound: C[N+](C)(C)CCOP(=O)([O-])OC[C@H](O)CO [sn-Glycero-3-phosphocholine]
- remaining activity at 3.75 µM ([3]; Well no.=7303): 106%
- remaining activity at 1.25 µM ([4]; Well no.=7303): 106%

Compound: COCCCOc1ccnc(C[S+]([O-])c2nc3ccccc3[nH]2)c1C (stereo not drawn) [sodium 2-((4-(3-methoxypropoxy)-3-methylpyridin-2-yl)methylsulfinyl)benzo[d]imidazol-1-ide]
- remaining activity at 3.75 µM ([3]; Well no.=6070): 93.7%
- remaining activity at 1.25 µM ([4]; Well no.=6070): 95.8%

Compound: COc1ccnc(C[S+]([O-])c2nc3cc(OC(F)F)ccc3[nH]2)c1OC (stereo not drawn) [sodium 5-(difluoromethoxy)-2-((3,4-dimethoxypyridin-2-yl)methylsulfinyl)benzo[d]imidazol-1-ide hydrate]
- remaining activity at 3.75 µM ([3]; Well no.=5829): 96.9%
- remaining activity at 1.25 µM ([4]; Well no.=5829): 95.3%

Compound: CC(C)(C)C(=O)Oc1ccc(S(=O)(=O)Nc2ccccc2C(=O)NCC(=O)O)cc1 [sodium ({2-[({4-[(2,2-dimethylpropanoyl)oxy]phenyl}sulfonyl)amino]benzoyl}amino)acetate hydrate]
- remaining activity at 3.75 µM ([3]; Well no.=5452): 101%
- remaining activity at 1.25 µM ([4]; Well no.=5452): 95.1%

Compound: CC(C)(C)c1cc(O)ccc1O [tert-Butylhydroquinone]
- remaining activity at 3.75 µM ([3]; Well no.=3861): 97.9%
- remaining activity at 1.25 µM ([4]; Well no.=3861): 98%

Compound: N[C@]1(C(=O)O)CC[C@H](C(=O)O)C1 [trans-ACPD]
- remaining activity at 3.75 µM ([3]; Well no.=7040): 96.7%
- remaining activity at 1.25 µM ([4]; Well no.=7040): 98.2%

Compound: O=C(O)/C=C(\CC(=O)O)C(=O)O [trans-Aconitic acid]
- remaining activity at 3.75 µM ([3]; Well no.=6827): 95.7%
- remaining activity at 1.25 µM ([4]; Well no.=6827): 94.2%

Compound: O=C(O)/C=C/C=C/C(=O)O [trans-trans-Muconic acid]
- remaining activity at 3.75 µM ([3]; Well no.=6589): 106%
- remaining activity at 1.25 µM ([4]; Well no.=6589): 103%

Compound: Nc1ncnc2c1C(=O)N(c1ccc(C3CCC(CC(=O)O)CC3)cc1)CCO2 (stereo not drawn) [{4-[4-(4-amino-5-oxo-7,8-dihydropyrimido[5,4-f][1,4]oxazepin-6(5H)-yl)phenyl]cyclohexyl}acetic acid]
- remaining activity at 3.75 µM ([3]; Well no.=5830): 103%
- remaining activity at 1.25 µM ([4]; Well no.=5830): 105%

Compound: CCCCC/C=C\C/C=C\C/C=C\CCCCC(=O)O [γ-Linolenic acid (18:3 n-6)]
- remaining activity at 3.75 µM ([3]; Well no.=4307): 100%
- remaining activity at 1.25 µM ([4]; Well no.=4307): 95%

Compound: Ac-LKKTETQ [TB500]
- remaining activity at 3.75 µM ([3]; Well no.=7646): 90.2%
- remaining activity at 1.25 µM ([4]; Well no.=7646): 92.9%

Compound: DRVYVHPF [Angiotensin II 5-valine]
- remaining activity at 3.75 µM ([3]; Well no.=7899): 97.5%
- remaining activity at 3.75 µM ([3]; Well no.=7986): 89.7%
- remaining activity at 1.25 µM ([4]; Well no.=7899): 98.8%
- remaining activity at 1.25 µM ([4]; Well no.=7986): 90.3%

Compound: KIPYIL [Neuromedin N]
- remaining activity at 3.75 µM ([3]; Well no.=8061): 90.1%
- remaining activity at 3.75 µM ([3]; Well no.=8502): 102%
- remaining activity at 1.25 µM ([4]; Well no.=8061): 91.8%
- remaining activity at 1.25 µM ([4]; Well no.=8502): 105%

Compound: RPPGFSPFR [Bradykinin]
- remaining activity at 3.75 µM ([3]; Well no.=8439): 95.2%
- remaining activity at 1.25 µM ([4]; Well no.=8439): 98.7%
